Laboratory results as given in patent US7790884B2, “Acylaminopiperidine compound” (Astellas Pharma Inc., priority 2006, dated 2010).
Where a name gives a salt, the structure may show the parent alone.

target: T1, human CCR4 (Homo sapiens, UniProt P51679); test: [35S]GTPγS binding test via CCR4 (human MDC-stimulated, human CCR4 expressing cell line membrane fraction); assay type: biochemical; settings: membrane fraction of human CCR4 expressing B300-16 cells, room temperature 1 hour 30 minutes, read-out: inhibitory activity value (IC50)
T1 construct: expressed in transfected cells; membrane fraction used
T1 sequence (P51679 1-360): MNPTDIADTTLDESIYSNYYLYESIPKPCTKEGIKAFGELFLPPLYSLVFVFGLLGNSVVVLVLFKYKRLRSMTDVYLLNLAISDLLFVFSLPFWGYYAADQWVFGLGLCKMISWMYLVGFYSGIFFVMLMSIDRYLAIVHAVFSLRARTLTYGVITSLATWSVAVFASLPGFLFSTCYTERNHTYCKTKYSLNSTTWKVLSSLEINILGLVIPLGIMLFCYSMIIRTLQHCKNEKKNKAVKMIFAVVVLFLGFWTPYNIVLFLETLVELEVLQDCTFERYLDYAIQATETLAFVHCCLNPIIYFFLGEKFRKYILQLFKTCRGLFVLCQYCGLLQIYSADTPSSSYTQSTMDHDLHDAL
Method: Action for [^35S]GTPγS Binding Test Via CCR4 (1) Preparation of Human CCR4 Expressing Cell Line A vector (contains a neomycin-resistance gene) in which human CCR4 gene was inserted into downstream of the EF-1α promoter was prepared and transfected into a mouse pre B cell line B300-16 cells by electroporation. These cells were cultured using a G-418-supplemented medium, and a single cell line capable of producing human CCR4 constantly and stably was obtained by the limiting dilution method. (2) Preparation of Human CCR4 Expressing Cell Line Membrane Fraction The human CCR4 expressing cells were recovered, washed with PBS and then suspended in a lysis buffer (10 mM HEPES pH 7.5, 2 mM EDTA, proteinase inhibitor). After allowing the suspension to stand on ice for 15 minutes, the cells were disintegrated using a homogenizer and centrifuged (2000 rpm, 10 min, 4° C.). The supernatant was further subjected to ultracentrifugation (22 K, 30 min, 4° C.), and then the pellet was suspended in PBS and used in the subsequent test. (3) GTPγS Binding Test In a reaction mixture liquid containing 20 mM of HEPES pH 7.05, 100 mM of NaCl, 5 mM of MgCl2, 2 μM of GDP, human MDC, […] of [^35S]GTPγS, 1 mg of wheat germ agglutinin SPA beads and 1 μg of the human CCR4 expressing cell line membrane fraction, respective concentration of the test compound was allowed to undergo the reaction at room temperature for 1 hour and 30 minutes, and the radioactivity was measured.

Structure (SMILES) | IC50 [nM]
COc1cc2nc(N3CCC(N(C)C(=O)[C@@H]4CCCN4C)CC3)nc(Nc3ccc(Cl)cc3F)c2cc1OC [Example 1, N-(1-{4-[(4-chloro-2-fluorophenyl)amino]-6,7-dimethoxyquinazolin-2-yl}piperidin-4-yl)-N,1-dimethyl-L-prolinamide dihydrochloride] | ≤ 100
COc1cc2nc(N3CCC(N(C)C(=O)[C@@H]4CCCCN4)CC3)nc(Nc3ccc(Cl)cc3F)c2cc1OC [Example 86] | ≤ 100
CCN(C(=O)[C@@H]1CCCN1C)C1CCN(c2nc(Nc3ccc(Cl)cc3F)c3cc(F)ccc3n2)CC1 [Example 49] | ≤ 100
COc1cc2nc(N3CCC(N(C)C(=O)[C@H]4CCCN4)CC3)nc(Nc3ccc(F)cn3)c2cc1F [Example 76] | ≤ 100
COc1cc2nc(N3CCC(N(C(=O)[C@H]4CCCCN4)C4CC4)CC3)nc(Nc3ccc(Cl)cc3F)c2cc1OC [Example 90] | ≤ 100
COc1cc2nc(N3CCC(N(C(=O)[C@@H]4CCCN4)C4CC4)CC3)nc(Nc3ccc(Cl)cc3F)c2cc1OC [Example 13] | ≤ 100
CCN(C(=O)[C@H]1CCCN1)C1CCN(c2nc(Nc3ccc(Cl)cc3F)c3cc(OC)c(OC)cc3n2)CC1 [Example 12] | ≤ 100
COc1cc2nc(N3CCC(N(C)C(=O)[C@H]4CCCN4CCO)CC3)nc(Nc3ccc(Cl)cc3F)c2cc1F [Example 77] | ≤ 100
COc1cc2nc(N3CCC(N(C)C(=O)[C@H]4CCCN4)CC3)nc(Nc3ccc(Cl)cc3)c2cc1F [Example 73] | ≤ 100
COc1cc2nc(N3CCC(N(C)C(=O)[C@@H]4CCCN4)CC3)nc(Nc3ccc(Cl)cc3F)c2cc1F [Example 61] | ≤ 100
CCN(C(=O)[C@@H]1CCCN1C)C1CCN(c2nc(Nc3ccc(Cl)cc3)c3cc(Br)ccc3n2)CC1 [Example 59] | ≤ 100
COc1cc2c(Nc3ccc(Cl)cc3F)nc(N3CCC(N(C)C(=O)[C@@H]4CCCN4C)CC3)nc2cc1F [Example 36] | ≤ 100
CN(C(=O)[C@H]1CCCN1)C1CCN(c2nc(Nc3ccc(Cl)cc3F)c3cnn(CC(F)(F)F)c3n2)CC1 [Example 102] | ≤ 100
CCN(C(=O)[C@@H]1CCCN1)C1CCN(c2nc(Nc3ccc(Cl)cc3F)c3cc(OC)c(OC)cc3n2)CC1 [Example 9] | ≤ 100
CCN(C(=O)[C@@H]1CCCN1C)C1CCN(c2nc(Nc3ccc(Cl)cc3)c3cc(F)ccc3n2)CC1 [Example 51] | ≤ 100
CCN(C(=O)[C@H]1CCCN1C)C1CCN(c2nc(Nc3ccc(Cl)cc3F)c3cc(OC)c(OC)cc3n2)CC1 [Example 26] | ≤ 100
COc1cc2nc(N3CCC(N(C(=O)[C@H]4CCCCN4)C4CCC4)CC3)nc(Nc3ccc(Cl)cc3F)c2cc1OC [Example 91] | ≤ 100
CCN(C(=O)[C@@H]1CCCN1)C1CCN(c2nc(Nc3ccc(Cl)cc3F)c3cc(F)ccc3n2)CC1 [Example 48] | ≤ 100
CN(C(=O)[C@H]1CCCN1C)C1CCN(c2nc(Nc3ccc(Cl)cc3F)c3cnn(CC(F)(F)F)c3n2)CC1 [Example 104] | ≤ 100
CCN(C(=O)[C@H]1CCCN1C)C1CCN(c2nc(Nc3ccc(Cl)cc3F)c3cc(Br)ccc3n2)CC1 [Example 58] | ≤ 100
COc1cc2nc(N3CCC(N(C(=O)[C@@H]4CCCN4)C4CCC4)CC3)nc(Nc3ccc(Cl)cc3F)c2cc1OC [Example 16] | ≤ 100

test system: Balb/c mice, oxazolone-induced contact dermatitis; test: Mouse oxazolone-induced contact dermatitis (ear swelling); assay type: in vivo; settings: 30 mg/kg oral administration, swelling 20 hours after oxazolone application
Method: 2. Action Upon Mouse Oxazolone-Induced Contact Dermatitis
Balb/c mice (6 to 10 weeks of age, female, Charles River Japan) were sensitized by applying 150 μl of 3% oxazolone/ethanol solution (Sigma Aldrich Japan) to the abdominal part. On the 6th day after the sensitization, 10 μl of 1% oxazolone/ethanol solution was applied to both sides of the right ear. The test drug was administered in 12 hours after the application of the oxazolone solution (test drug administration group), and the solvent alone used in dissolving the test drug was administered to the control group. Thickness of the right auricle was measured before the application and 20 hours thereafter using a […] (Mitsutoyo), and the swelling (thickness increment=measured value after 20 hours−measured value before application) was calculated. The inhibition ratio was calculated by the following formula, by regarding a group to which the oxazolone solution was applied without sensitization as the normal group. In this connection, the above-mentioned test was carried out by 5 animals per group. Inhibition ratio=(swelling of control group−swelling of test drug administration group)×100/(swelling of control group−swelling of normal group)

Structure (SMILES) | inhibitory activity (inhibition of right auricle swelling)
COc1cc2nc(N3CCC(N(C)C(=O)[C@@H]4CCCN4C)CC3)nc(Nc3ccc(Cl)cc3F)c2cc1OC [Example 1, N-(1-{4-[(4-chloro-2-fluorophenyl)amino]-6,7-dimethoxyquinazolin-2-yl}piperidin-4-yl)-N,1-dimethyl-L-prolinamide dihydrochloride] | good inhibitory activity
